# From US7098219B2, “Inhibitors of cellular efflux pumps of microbes” (Wockhart Limited, priority 2000, dated 2006)
# Tested on: Staphylococcus aureus 1199 B NorA+
# Experiment: not given
# Type: cell-based
# Details: combination with ciprofloxacin, broth microdilution checkerboard, 35° C. 20 hours; FIC index ≦0.5 synergistic, 0.5–2.0 additive, >2.0 antagonistic
# Method in brief: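 Broth microdilution checkerboard with ciprofloxacin against S. aureus 1199B NorA+, pump inhibitor titrated along one axis; inoculum 5×10^5 CFU/ml in Mueller Hinton broth, 35 °C for 20 hours. Growth read by visible turbidity, confirmed by plate reader; FIC index derived from inhibitor MIC in combination versus alone.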
row,Compound,FIC INDEX
1,"C[C@H]1CCc2c(N3CCC(O)C(C)(C)C3)c(F)cc3c(=O)c(C(=O)O)cn1c23 (stereo partly drawn) [Example 55 (NorA), S-(−)-9-Fluoro-6,7-dihydro-8-(4′-hydroxy-3′,3′-dimethylpiperidin-1-yl)-5-methyl-1-oxo-1H,5H-benzo[i,j]quinolizine-2-carboxylic acid]",0.378

# Tested on: Mef Efflux Pump of Streptococcus pneumoniae 3514 and Streptococcus pyogenes 26-00
# Experiment: Two plate diffusion assay for macrolide (Mef) efflux pump inhibitors, azithromycin plate versus control plate
# Type: cell-based
# Details: zone of inhibition in antibiotic plate (method: azithromycin 0.5 mcg/ml; footnote: levofloxacin) minus water control plate; strain not given
row,Compound,Difference in Zone diameter Z1 (mm)
1,"CC1CN(c2nc3c(cc2F)c(=O)c(C(=O)O)cn3-c2ccc(F)cc2F)CC(C)C1N (centres unmarked) [Example 37 (Mef), 1-(2,4-difluorophenyl)-6-fluoro-1,4-dihydro-7-(4-amino-3,5-dimethylpiperidin-1-yl)-4-oxo-1,8-naphthyridine-3-carboxylic acid]",7
2,"CCNC1C(C)CN(c2c(F)c(N)c3c(=O)c(C(=O)O)cn(C4CC4)c3c2OC)CC1C (centres unmarked) [Example 35 (Mef), 5-Amino-1-cyclopropyl-6-fluoro-8-methoxy-1,4-dihydro-7-{4′-ethylamino-3′,5′-dimethylpiperidin-1-yl}-4-oxo-quinoline-3-carboxylic acid]",13
3,"COc1c(N2CCC(NC(=O)[C@@H](N)CC(=O)O)C(C)(C)C2)c(F)cc2c(=O)c(C(=O)O)cn(C3CC3)c12.Cl (some centres unmarked) [Example 11 (Mef), 1-Cyclopropyl-6-fluoro-8-methoxy-1,4-dihydro-7-(4′-(L)-aspartylamino-3′,3′-dimethylpiperidin-1-yl}-4-oxo-quinoline-3-carboxylic acid hydrochloride]",6
4,"C[C@H]1CCc2c(N3CCC(O)C(F)C3)c(F)cc3c(=O)c(C(=O)O)cn1c23 (stereo partly drawn) [Example 39 (Mef), (S)-(−)-9-Fluoro-6,7-dihydro-8-(4′-hydrox 3′-fluoropiperidin-1-yl)-5-methyl-1-oxo-1H,5H-benzo[i,j]quinolizine-2-carboxylic acid]",8
5,"CC1CN(c2cc3c(cc2F)c(=O)c(C(=O)O)cn3C2CC2)CCC1N(C)C (centres unmarked) [Example 32 (Mef), 1-Cyclopropyl-6-fluoro-1,4-dihydro-7-(4′-dimethylamino-3′-methylpiperidin-1-yl)-4-oxo-quinoline-3-carboxylic acid]",8
6,"CNC1CCN(c2cc3c(c(C)c2F)c(=O)c(C(=O)O)cn3-c2ccc(F)cc2F)CC1 [Example 19 (Mef), 1-(2′,4′-Difluorophenyl)-6-fluoro-5-methyl-1,4-dihydro-7-(4′-methylaminopiperidin-1′-yl)-4-oxo-quinoline-3-carboxylic acid]",8
7,"CC1COc2c(N3CCC(O)C(CN)C3)c(F)cc3c(=O)c(C(=O)O)cn1c23 (centres unmarked) [Example 27 (Mef), 7H-Pyrido[1,2,3-de]-1,4-benzoxazine-9-fluoro-2,3-dihydro-3-methyl-10-(3′-aminomethyl-4′-hydroxypiperidin-1′-yl)-7-oxo-6-carboxylic acid]",16
8,"CCNC1CCN(c2c(F)c(C)c3c(=O)c(C(=O)O)cn(C4CC4)c3c2F)CC1(C)C (centres unmarked) [Example 28 (Mef), 1-Cyclopropyl-6,8-difluoro-5-methyl-1,4-dihydro-7-(3′,3′-dimethyl-4′-ethylaminopiperidin-1-yl)-4-oxo-quinoline-3-carboxylic acid]",10
9,"CC1(C)CN(c2nc3c(cc2F)c(=O)c(C(=O)O)cn3-c2ccc(F)cc2F)CCC1O (centres unmarked) [Example 24 (Mef), 1-(2,4-Difluorophenyl)-6-fluoro-1,4-dihydro-7-(3′,3′-dimethyl-4′-hydroxypiperdin-1-yl)-4-oxo-naphthyridine-3-carboxylic acid]",10
10,NC1CCN(c2nc3c(cc2F)c(=O)c(C(=O)O)cn3C2CC2)C1 (centres unmarked) [Example 20 (Mef)],10
11,"CC1CCc2c(N3CCC(O)C(C)(C)C3)ccc3c(=O)c(C(=O)O)cn1c23 (racemic) [Example 43 (Mef), (RS)-(±)-6,7-dihydro-8-(4′-hydroxy-3′,3′-dimethylpiperidin-1-yl)-5-methyl-1-oxo-1H,5H-benzo[i,j]quinolizine-2-carboxylic acid]",10
12,"COc1c(N2CCC(NC(=O)[C@@H](NC(=O)OC(C)(C)C)C(C)C)C(C)(C)C2)c(F)cc2c(=O)c(C(=O)O)cn(C3CC3)c12 (stereo partly drawn) [Example 9 (Mef), 1-Cyclopropyl-6-fluoro-8-methoxy-1,4-dihydro-7-(3′,3′-dimethyl-4′-N-(t-butoxycarbonyl-L-valyl)-aminopiperidin-1-yl}-4-oxo-quinoline-3-carboxylic acid]",5
13,"Cc1c(F)c(N2CCC(N)CC2)cc2c1c(=O)c(C(=O)O)cn2-c1ccc(F)cc1F [Example 18 (Mef), 1-(2′,4′-Difluorophenyl)-6-fluoro-5-methyl-1,4-dihydro-7-(4′-aminopiperidin-1′-yl)-4-oxo-quinoline-3-carboxylic acid]",8
14,NC1CCN(c2nc3c(cc2F)c(=O)c(C(=O)O)cn3-c2ccc(F)cc2F)C1 (centres unmarked) [Example 22 (Mef)],8
15,"CCNC1CCN(c2c(F)cc3c(=O)c(C(=O)O)cn4c3c2CC[C@@H]4C)CC1(C)C (stereo partly drawn) [Example 30 (Mef), (S)-(−)-9-Fluoro-6,7-dihydro-8-(3′,3′-dimethyl-4′-ethylaminopiperidin-1-yl)-5-methyl-1-oxo-1H,5H-benzo[i,j]quinolizine-2-carboxylic acid]",8
16,"CCNC1CCN(c2c(F)cc3c(=O)c(C(=O)O)cn(CC)c3c2F)CC1 [Example 12 (Mef), 1-Ethyl-6,8-difluoro-1,4-dihydro-7-(4′-ethylaminouiperidin-1′-yl)-4-oxo-quinoline-3-carboxylic acid]",18
17,"NCC1CN(c2cc3c(cc2F)c(=O)c(C(=O)O)cn3C2CC2)CCC1O (centres unmarked) [Example 31 (Mef), 1-Cyclopropyl-6-fluoro-1,4-dihydro-7-(3′-aminomethyl-4′-hydroxypiperidin 1-yl)-4-oxo-quinoline-3-carboxylic acid]",6
18,"Cc1c(F)c(F)c(F)c2c1c(=O)c(C(=O)O)cn2C1CC1 [Example 29 (Mef), 1-cyclopropyl-6,7,8-trifluoro-5-methyl-1,4-dihydro-4-oxo-quinoline-3-carboxylic acid]",10
19,"CCNC1CCN(c2cc3c(cc2F)c(=O)c(C(=O)O)cn3-c2ccc(F)cc2F)CC1 [Example 17 (Mef), 1-(2′,4′-Difluorophenyl)-6-fluoro-1,4-dihydro-7-(4′-ethylaminopiperidin-1′-yl)-4-oxo-quinoline-3-carboxylic acid]",9
20,"COc1c(N2CCC(N)C(C)(C)C2)c(F)cc2c(=O)c(C(=O)OC(C)C)cn(C3CC3)c12 (centres unmarked) [Example 3 (Mef), i-Propyl 1-cyclopropyl-6-fluoro-8-methoxy-1,4-dihydro-7-(4′-amino-3′,3′-dimethyl-piperidin-1-yl)-4-oxo-quinoline-3-carboxylate]",11
21,"CCCCOC(=O)c1cn(C2CC2)c2c(OC)c(N3CCC(N)C(C)(C)C3)c(F)cc2c1=O (centres unmarked) [Example 4 (Mef), n-Butyl 1-cyclopropyl-6-fluoro-8-methoxy-1,4-dihydro-7-(4′-amino-3′,3′-dimethyl-piperidin-1-yl)-4-oxo-quinoline-3-carboxylate]",11
22,"CN1CCN(c2cc3c(cc2F)c(=O)c(C(=O)O)cn3-c2cccc(F)c2)CC1 [Example 16 (Mef), 1-(3′-Fluorophenyl)-6-fluoro-1,4-dihydro-7-(4′-methylpiperazin-1′-yl)-4-oxo-quinoline-3-carboxylic acid]",10
23,"Nc1c(F)c(NC2CN3CCC2CC3)c(F)c2c1c(=O)c(C(=O)O)cn2C1CC1 (centres unmarked) [Example 14 (Mef), 5-Amino-1-cyclopropyl-6,8-difluoro-1,4-dihydro-7-(3′-quinuclidinyl-3′-yl-amino)-4-oxo-quinoline-3-carboxylic acid]",8
24,"CNC1CCN(c2c(F)c(N)c3c(=O)c(C(=O)O)cn(C4CC4)c3c2OC)CC1(C)C (centres unmarked) [Example 2 (Mef), 5-Amino-1-cyclopropyl-6-fluoro-8-methoxy-1,4-dihydro-7-{4′-(methylamino)-3′,3′-dimethylpiperidin-1-yl}-4-oxo-quinoline-3-carboxylic acid]",8
25,"1-Cyclopropyl-6-fluoro-8-methoxy-1,4-dihydro-7-{-4′-(t-butoxycarbonyl (L)-Ala-Ala)amino 3′,3′-dimethylpiperidin-1-yl}-4-oxo-quinoline-3-carboxylic acid [Example 34 (Mef)]",8
26,"CC1CN(c2c(F)c(N)c3c(=O)c(C(=O)O)cn(C4CC4)c3c2F)CCC1N (centres unmarked) [Example 13 (Mef), 5-Amino-1-cyclopropyl-6,8-difluoro-1,4-dihydro-7-(4′-amino-3′-methylpiperidin-1-yl)-4-oxo-quinoline-3-carboxylic acid]",20
27,"CCOC(=O)c1cn(-c2ccc(F)cc2F)c2nc(N3CCC(N)C(C)(C)C3)c(F)c(C)c2c1=O (centres unmarked) [Example 38 (Mef), Ethyl 1-(2,4-difluorophenyl)-6-fluoro-5-methyl-1,4-dihydro-7-(4-amino-3,3-dimethylpiperidin-1-yl)-4-oxo-1,8-naphthyridine-3-carboxylate]",10
28,"COc1c(N2CCC(NC(=O)[C@@H](N)C(C)C)C(C)(C)C2)c(F)cc2c(=O)c(C(=O)O)cn(C3CC3)c12.Cl (stereo partly drawn) [Example 10 (Mef), 1-Cyclopropyl-6-fluoro-8-methoxy-1,4-dihydro-7-(3′,3′-dimethyl-4′-L-valinylaminopiperidin-1-yl}-4-oxo-quinoline-3-carboxylic acid hydrochloride]",8
